The results in this text go back to US20230265055A1, “STAT INIHIBITORY COMPOUNDS AND COMPOSITIONS” (JANPIX LIMITED, priority 2020, published 2023).

Where only a bound is given, the exact number is not on record here.

One assay has as its system MV4-11 cells. The experiment in a line: MV4-11 Cell Cytotoxicity Assay. The assay is classed as cell-based. Particulars: Homo sapiens, 72 h incubation, CellTiter-Blue, read-out: IC50-MV-4-11 (NS). The procedure:
MV4-11 cells were grown in Iscove's Modified Dulbecco's Medium (IMDM) supplemented with 10% fetal bovine serum (FBS). 10,000 cells were plated per well in 96-well flat-bottom sterile culture plates with low-evaporation lids. After 24 h, inhibitors and a vehicle control (0.5% DMSO) were added and the cells were incubated for 72 h at 37° C. in 5% CO2. Inhibitors were examined in triplicate at a maximal concentration of 50 μM, followed by 1:2 dilutions in subsequent wells (25, 12.5, 6.25, 3.13, 1.56, 0.78, 0.39, 0.20 and 0.098 μM). After 72 h, the wells were treated with CellTiter-Blue® (20 μL/well), and the plates were incubated using standard cell culture conditions for 1 hour. Fluorescence was measured at 560/590 nm.

For assay [1], the system named is normal human fibroblast (NHF) cells. The experiment in a line: NHF Cell Cytotoxicity Assay. The assay is classed as cell-based. Particulars: 72 hours, CellTiter-Blue, read-out: IC50—Pooled NHF. As for the experimental part:
Cell viability was examined a following treatment at various concentrations of inhibitor (0.097656-50 μM) using a cell Titer-Blue cell viability assay. 1×10^4 normal human fibroblast cells per well were plated in 96-well assay plates in culture medium. All cells were grown in DMEM, IMDM and RPMI-1640 were supplemented with 10% FBS. After 24 hours, test compounds and vehicle controls were added to appropriate wells so the final volume was 100 μl in each well. The cells were cultured for the desired test exposure period (72 hours) at 37° C. and 5% CO2. The assay plates were removed from 37° C. incubator and 20 μL/well of CellTiter-Blue® Reagent was added. […] For each sample well, value was normalized between the DMSO control and the highest concentration in case of plateau and converted into a percentage. In the absence of plateau, minimum lecture is obtained from a different sample within the same experiment. For each concentration, the four replicates are averaged, and standard deviation calculated. Data was fitted to a log(inhibitor) vs response curve with variable slope model using Microsoft Excel, obtaining IC50 and Hill slope variables.
A person skilled in the art would appreciate that a higher IC50 value in this NHF assay can indicate lower off-target effects.
For orientation: Alamar Blue is a resazurin reagent that responds to reducing activity.

As a reminder, the IC50 is the concentration at which inhibition is half-maximal. As for `CCOc1cc(C(=O)O)ccc1N(Cc1cc(C2CC2)cc(C2CC2)c1)C(=O)CN(Cc1cccc(F)c1F)S(=O)(=O)c1cc(F)c(F)c(F)c1F` [Compound 9, 4-[(3,5-dicyclopropylphenyl)methyl-[2-[(2,3-difluorophenyl)methyl-(2,3,4,5-tetrafluorophenyl)sulfonyl-amino]acetyl]amino]-3-ethoxy-benzoic acid], the 50% inhibitory concentration (IC50) with MV4-11 cells is 1.2 to 6 µM. The same measure, in the same setting: the same measure for `CCOc1cc(C(=O)O)ccc1N(Cc1cc(C2CC2)cc(C2CC2)c1)C(=O)CN(Cc1ccccc1F)S(=O)(=O)c1cc(F)c(F)c(F)c1F` [Compound 11, 4-[(3,5-dicyclopropylphenyl)methyl-[2-[(2-fluorophenyl)methyl-(2,3,4,5-tetrafluorophenyl)sulfonyl-amino]acetyl]amino]-3-ethoxy-benzoic acid]: 1.2 to 6 µM; for `CCOc1cc(C(=O)O)ccc1N(Cc1cc(C2CC2)cc(C2CC2)c1)C(=O)CN(Cc1c(F)cc(F)cc1F)S(=O)(=O)c1cc(F)c(F)c(F)c1F` [Compound 12, 4-[(3,5-dicyclopropylphenyl)methyl-[2-[(2,3,4,5-tetrafluorophenyl)sulfonyl-[(2,4,6-trifluorophenyl)methyl]amino]acetyl]amino]-3-ethoxy-benzoic acid]: 0.4 to 1.2 µM. Still for that read-out and setting: then `CCOc1cc(C(=O)O)ccc1N(Cc1cc(C2CC2)cc(C2CC2)c1)C(=O)CN(Cc1ccccc1C(F)(F)F)S(=O)(=O)c1c(F)cc(F)c(F)c1F` [Compound 14, 4-[(3,5-dicyclopropylphenyl)methyl-[2-[(2,3,4,6-tetrafluorophenyl)sulfonyl-[[2-(trifluoromethyl)phenyl]methyl]amino]acetyl]amino]-3-ethoxy-benzoic acid], with 1.2 to 6 µM. Same read-out and setting: the same measure for `CCOc1cc(C(=O)O)ccc1N(Cc1cc(C2CC2)cc(C2CC2)c1)C(=O)CN(Cc1ccc(F)cc1Cl)S(=O)(=O)c1c(F)cc(F)c(F)c1F` [Compound 15, 4-[[2-[(2-chloro-4-fluoro-phenyl)methyl-(2,3,4,6-tetrafluorophenyl)sulfonyl-amino]acetyl]-[(3,5-dicyclopropylphenyl)methyl]amino]-3-ethoxy-benzoic acid]: 1.2 to 6 µM. With `CCOc1cc(C(=O)O)c(F)cc1N(Cc1cc(C2CC2)cc(C2CC2)c1)C(=O)CN(Cc1ccccc1C#N)S(=O)(=O)c1cc(F)c(F)c(F)c1F` [Compound 18, 4-[[2-[(2-cyanophenyl)methyl-(2,3,4,5-tetrafluorophenyl)sulfonyl-amino]acetyl]-[(3,5-dicyclopropylphenyl)methyl]amino]-5-ethoxy-2-fluoro-benzoic acid], the IC50 in the assay with MV4-11 cells was 0.4 to 1.2 µM; in assay [1], ≥ 24 µM. Regarding `CCOc1cc(C(=O)O)c(F)cc1N(Cc1cc(C2CC2)cc(C2CC2)c1)C(=O)CN(Cc1ccccc1C#N)S(=O)(=O)c1c(F)cc(F)c(F)c1F` [Compound 19, 4-[[2-[(2-cyanophenyl)methyl-(2,3,4,6-tetrafluorophenyl)sulfonyl-amino]acetyl]-[(3,5-dicyclopropylphenyl)methyl]amino]-5-ethoxy-2-fluoro-benzoic acid], in the assay with MV4-11 cells, the IC50 was in the range of 1.2 to 6 µM. Take `CCOc1cc(C(=O)O)ccc1N(Cc1cc(C2CC2)cc(C2CC2)c1)C(=O)CN(Cc1ccccc1C(F)(F)F)S(=O)(=O)c1c(Br)cc(F)c(F)c1F` [Compound 21, 4-[[2-[(6-bromo-2,3,4-trifluoro-phenyl)sulfonyl-[[2-(trifluoromethyl)phenyl]methyl]amino]acetyl]-[(3,5-dicyclopropylphenyl)methyl]amino]-3-ethoxy-benzoic acid]: the IC50 in the assay on MV4-11 cells is 1.2 to 6 µM; in assay [1] it was ≥ 24 µM. Turning to `CCOc1cc(C(=O)O)ccc1N(Cc1cc(C2CC2)cc(N2CCCC2)c1)C(=O)CN(Cc1ccccc1C#N)S(=O)(=O)c1cc(F)c(F)c(F)c1F` [Compound 22, 4-[[2-[(2-cyanophenyl)methyl-(2,3,4,5-tetrafluorophenyl)sulfonyl-amino]acetyl]-[(3-cyclopropyl-5-pyrrolidin-1-yl-phenyl)methyl]amino]-3-ethoxy-benzoic acid], in the assay on MV4-11 cells, the IC50 lay in the range of 0.4 to 1.2 µM.

As to `CCOc1cc(C(=O)O)ccc1N(Cc1cc(C2CC2)cc(N2CCCC2)c1)C(=O)CN(Cc1ccccc1C#N)S(=O)(=O)c1c(F)cc(F)c(F)c1F` [Compound 23, 4-[[2-[(2-cyanophenyl)methyl-(2,3,4,6-tetrafluorophenyl)sulfonyl-amino]acetyl]-[(3-cyclopropyl-5-pyrrolidin-1-yl-phenyl)methyl]amino]-3-ethoxy-benzoic acid], the IC50 with MV4-11 cells fell in the range of 1.2 to 6 µM. On the same count and under the same terms, then `CCOc1cc(C(=O)O)ccc1N(Cc1cc(C2CC2)cc(C(C)(C)C)c1)C(=O)CN(Cc1ccccc1C#N)S(=O)(=O)c1c(F)cc(F)c(F)c1F` [Compound 25, 4-[(3-tert-butyl-5-cyclopropyl-phenyl)methyl-[2-[(2-cyanophenyl)methyl-(2,3,4,6-tetrafluorophenyl)sulfonyl-amino]acetyl]amino]-3-ethoxy-benzoic acid], with 1.2 to 6 µM. With `CCOc1cc(C(=O)O)ccc1N(Cc1cccc(N2CCCC2)c1)C(=O)CN(Cc1ccccc1C#N)S(=O)(=O)c1cc(F)c(F)c(F)c1F` [Compound 26, 4-[[2-[(2-cyanophenyl)methyl-(2,3,4,5-tetrafluorophenyl)sulfonyl-amino]acetyl]-[(3-pyrrolidin-1-ylphenyl)methyl]amino]-3-ethoxy-benzoic acid], the IC50 in the assay with MV4-11 cells was in the range of 0.4 to 1.2 µM. The same measure, in the same setting: then `CCOc1cc(C(=O)O)ccc1N(Cc1cc(OC(C)C)cc(C2CC2)c1)C(=O)CN(Cc1ccccc1C#N)S(=O)(=O)c1cc(F)c(F)c(F)c1F` [Compound 32, 4-[[2-[(2-cyanophenyl)methyl-(2,3,4,5-tetrafluorophenyl)sulfonyl-amino]acetyl]-[(3-cyclopropyl-5-isopropoxy-phenyl)methyl]amino]-3-ethoxy-benzoic acid], with 1.2 to 6 µM. For the molecule `CCOc1cc(C(=O)O)ccc1N(Cc1cccc(OC(C)C)c1)C(=O)CN(Cc1ccccc1C#N)S(=O)(=O)c1cc(F)c(F)c(F)c1F` [Compound 33, 4-[[2-[(2-cyanophenyl)methyl-(2,3,4,5-tetrafluorophenyl)sulfonyl-amino]acetyl]-[(3-isopropoxyphenyl)methyl]amino]-3-ethoxy-benzoic acid], in the assay on MV4-11 cells, the IC50 lay within 1.2 to 6 µM. For the molecule `CCOc1cc(C(=O)O)ccc1N(Cc1cc(C2CC2)cc(N2CCCC2)c1)C(=O)CN(Cc1ccccc1C#N)S(=O)(=O)c1c(Br)cc(F)c(F)c1F` [Compound 36, 4-[[2-[(6-bromo-2,3,4-trifluoro-phenyl)sulfonyl-[(2-cyanophenyl)methyl]amino]acetyl]-[(3-cyclopropyl-5-pyrrolidin-1-yl-phenyl)methyl]amino]-3-ethoxy-benzoic acid], the IC50 is 1.2 to 6 µM in the assay on MV4-11 cells and ≥ 24 µM in assay [1].

For `COc1cc(C(=O)O)ccc1N(Cc1cc(C2CC2)cc(C(C)(C)C)c1)C(=O)CN(Cc1cnccc1C(F)(F)F)S(=O)(=O)c1c(F)c(F)cc(F)c1F` [Compound 46, 4-(N-(3-(tert-butyl)-5-cyclopropylbenzyl)-2-((2,3,5,6-tetrafluoro-N-((4-(trifluoromethyl)pyridin-3-yl)methyl)phenyl)sulfonamido)acetamido)-3-methoxy benzoic acid], in the assay with MV4-11 cells, the IC50 was > 6 µM. Same read-out and setting: the same measure for `CCOc1cc(C(=O)O)ccc1N(Cc1cc(C2CC2)cc(C2CC2)c1)C(=O)CNS(=O)(=O)c1cc(F)c(F)c(F)c1F` [Compound 47, 4-(N-(3,5-dicyclopropylbenzyl)-2-((2,3,4,5-tetrafluorophenyl)sulfonamido)acetamido)-3-ethoxy benzoic acid]: > 6 µM.

With `CCOc1cc(C(=O)O)ccc1NC(=O)CN(Cc1ccccc1C#N)S(=O)(=O)c1cc(F)c(F)c(F)c1F` [Compound 48, 4-(2-((N-(2-cyanobenzyl)-2,3,4,5-tetrafluorophenyl)sulfonamido)acetamido)-3-ethoxy benzoic acid], in the assay with MV4-11 cells, the IC50 was 1.2 to 6 µM. For `O=C(O)c1ccc(N(Cc2cc(C3CC3)cc(C3CC3)c2)C(=O)CN(Cc2ccccc2Cl)S(=O)(=O)c2c(F)c(F)c(F)c(F)c2Cl)c(O)c1` [Compound 73, 4-(2-((2-chloro-N-(2-chlorobenzyl)-3,4,5,6-tetrafluorophenyl)sulfonamido)-N-(3,5-dicyclopropylbenzyl)acetamido)-3-hydroxybenzoic acid], the IC50 with MV4-11 cells was 0.4 to 1.2 µM; in assay [1], ≥ 24 µM. On the same counts, the results for `O=C(O)c1ccc(N(Cc2cc(C3CC3)cc(C3CC3)c2)C(=O)CN(Cc2ccccc2Cl)S(=O)(=O)c2c(F)c(F)c(F)c(F)c2Cl)cc1O` [Compound 76, 4-(2-((2-chloro-N-(2-chlorobenzyl)-3,4,5,6-tetrafluorophenyl)sulfonamido)-N-(3,5-dicyclopropylbenzyl)acetamido)-2-hydroxybenzoic acid] are 1.2 to 6 µM and ≥ 24 µM.
